Measurements as given in patent US20080274892A1, “Novel Haloalkylsulfonanilide Derivative, Herbicide, and Method of Use Thereof” (priority 2005, published 2008).

Columns and labels:
bulrush [1] = test: Test Example 1: herbicidal efficacy on rice paddy weeds pre-emergence; type: in vivo, Scirpus juncoides; conditions: 21 days
false pimpernel [2] = test: as above; type: in vivo, Lindernia pyxidaria; conditions: 21 days
barnyard glass = test: Test Example 2: herbicidal efficacy on rice paddy weeds post-emergence; type: in vivo, Echinochloa crus-galli; conditions: post-emergence, one leaf stage, 21 days after treatment
Procedure, shortened: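 Efficacy on paddy weeds was scored on a 0 to 4 growth-inhibition scale: 4 for 90%-100%, 3 for 70%-89%, 2 for 40%-69%, 1 for 1%-39% and 0 for 0%. Barnyard glass was grown in clay loam in 75 cm^2 pots under 5 cm of water in a hot house. It was compared with untreated pots 21 days after treatment.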

bulrush [3] = test: as above; type: in vivo, Scirpus juncoides; conditions: post-emergence, one leaf stage, 21 days after treatment
false pimpernel [4] = test: as above; type: in vivo, Lindernia pyxidaria; conditions: post-emergence, one leaf stage, 21 days after treatment
[5] = test system: paddy rice plant (cultivar: Nihonbare); test: Test Example 3: phytotoxicity test for transplanted paddy rice plant; type: in vivo; conditions: transplanted rice, 21 days after treatment
Procedure, shortened: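 Clay loam soil was placed in a 75 cm^2 plastic pot and flooded to a water depth of 5 cm. Two Nihonbare paddy rice plants at the two-leaf stage were transplanted 1 cm deep and grown in a hot house. After treatment, pots stayed in the hot house for 21 days, and phytotoxicity was then graded against an untreated control.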

bulrush [6] = test: Test Example 4: low dosage test for rice paddy weeds; type: in vivo, Scirpus juncoides; conditions: 300 g/ha as an active ingredient; plants treated at the one leaf stage; 21 days after treatment; vs untreated control
Procedure, shortened: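 Compound applied as a formulation at 300 g/ha to one-leaf bulrush grown in flooded clay loam (5 cm water) in a hot house. After 21 days, growth inhibition versus untreated plants rated on a 0–4 scale, with 4 meaning 90–100%.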

[7] = test system: transplanted paddy rice plant and Bulrush; test: Test Example 5: selectivity between transplanted paddy rice plant and weeds; type: in vivo; conditions: (highest dosage with no phytotoxicity to paddy rice)/(lowest dosage with effective level 4 on Bulrush); rice 3000-100 g/ha, Bulrush 300-10 g/ha; 21 days
Procedure, shortened: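 Scoring ran 21 days after treatment in a hothouse on a 0–4 scale (4 = 90–100%, 3 = 70–89%, 2 = 40–69%, 1 = 1–39%, 0 = none) relative to untreated plants. Post-emergence bulrush received 10, 30, 100 and 300 g/ha active ingredient. Transplanted rice received 100, 300, 1000 and 3000 g/ha to assess crop injury.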

[8] = dosage 1000 g/ha, treated 5 days after transplantation

CCCC1(CC)CN(Cc2ccccc2N(C(=O)OCC(C)C)S(=O)(=O)C(F)(F)F)C(=O)O1 (centres unmarked) [1-132]
Bulrush pre (herbicidal efficacy grade) (bulrush [1]; dosage 1000 g/ha): 4 (90%-100% of herbicidal efficacy or phytotoxicity) | False pimpernel pre (herbicidal efficacy grade) (false pimpernel [2]; dosage 1000 g/ha): 4 (90%-100% of herbicidal efficacy or phytotoxicity) | Burnyard grass post (herbicidal efficacy grade) (barnyard glass; dosage 1000 g/ha): 4 (90%-100% of herbicidal efficacy or phytotoxicity) | Bulrush post (herbicidal efficacy grade) (bulrush [3]; dosage 1000 g/ha): 4 (90%-100% of herbicidal efficacy or phytotoxicity) | False pimpernel post (herbicidal efficacy grade) (false pimpernel [4]; dosage 1000 g/ha): 4 (90%-100% of herbicidal efficacy or phytotoxicity) | Phytotoxicity to paddy rice [5, 8]: 1 (1%-39% of herbicidal efficacy or phytotoxicity) | Herbicide effect to Bulrush (bulrush [6]): 4 (90%-100% of herbicidal efficacy or phytotoxicity) | Selective Index [7]: 10

CCCCOC(=O)N(c1ccccc1CN1CC(C)(C(C)C)OC1=O)S(=O)(=O)C(F)(F)F (racemic) [1-117]
Bulrush pre (herbicidal efficacy grade) (bulrush [1]; dosage 1000 g/ha): 4 (90%-100% of herbicidal efficacy or phytotoxicity) | False pimpernel pre (herbicidal efficacy grade) (false pimpernel [2]; dosage 1000 g/ha): 4 (90%-100% of herbicidal efficacy or phytotoxicity) | Burnyard grass post (herbicidal efficacy grade) (barnyard glass; dosage 1000 g/ha): 4 (90%-100% of herbicidal efficacy or phytotoxicity) | Bulrush post (herbicidal efficacy grade) (bulrush [3]; dosage 1000 g/ha): 4 (90%-100% of herbicidal efficacy or phytotoxicity) | False pimpernel post (herbicidal efficacy grade) (false pimpernel [4]; dosage 1000 g/ha): 4 (90%-100% of herbicidal efficacy or phytotoxicity) | Phytotoxicity to paddy rice [5, 8]: 2 (40%-69% of herbicidal efficacy or phytotoxicity) | Herbicide effect to Bulrush (bulrush [6]): 4 (90%-100% of herbicidal efficacy or phytotoxicity) | Selective Index [7]: 10

CC(C)COC(=O)N(c1ccccc1CN1C(=O)OC2CCCCC21)S(=O)(=O)C(F)(F)F (centres unmarked) [1-48]
Bulrush pre (herbicidal efficacy grade) (bulrush [1]; dosage 1000 g/ha): 4 (90%-100% of herbicidal efficacy or phytotoxicity) | False pimpernel pre (herbicidal efficacy grade) (false pimpernel [2]; dosage 1000 g/ha): 4 (90%-100% of herbicidal efficacy or phytotoxicity) | Burnyard grass post (herbicidal efficacy grade) (barnyard glass; dosage 1000 g/ha): 4 (90%-100% of herbicidal efficacy or phytotoxicity) | Bulrush post (herbicidal efficacy grade) (bulrush [3]; dosage 1000 g/ha): 4 (90%-100% of herbicidal efficacy or phytotoxicity) | False pimpernel post (herbicidal efficacy grade) (false pimpernel [4]; dosage 1000 g/ha): 4 (90%-100% of herbicidal efficacy or phytotoxicity) | Phytotoxicity to paddy rice [5, 8]: 1 (1%-39% of herbicidal efficacy or phytotoxicity) | Herbicide effect to Bulrush (bulrush [6]): 3 (70%-89% of herbicidal efficacy or phytotoxicity) | Selective Index [7]: 10

CCC1(C)CN(Cc2ccccc2N(C(=O)OCC(C)C)S(=O)(=O)C(F)(F)F)C(=S)O1 (centres unmarked) [1-181]
Bulrush pre (herbicidal efficacy grade) (bulrush [1]; dosage 1000 g/ha): 4 (90%-100% of herbicidal efficacy or phytotoxicity) | False pimpernel pre (herbicidal efficacy grade) (false pimpernel [2]; dosage 1000 g/ha): 4 (90%-100% of herbicidal efficacy or phytotoxicity) | Burnyard grass post (herbicidal efficacy grade) (barnyard glass; dosage 1000 g/ha): 4 (90%-100% of herbicidal efficacy or phytotoxicity) | Bulrush post (herbicidal efficacy grade) (bulrush [3]; dosage 1000 g/ha): 4 (90%-100% of herbicidal efficacy or phytotoxicity) | False pimpernel post (herbicidal efficacy grade) (false pimpernel [4]; dosage 1000 g/ha): 4 (90%-100% of herbicidal efficacy or phytotoxicity) | Phytotoxicity to paddy rice [5, 8]: 1 (1%-39% of herbicidal efficacy or phytotoxicity) | Herbicide effect to Bulrush (bulrush [6]): 4 (90%-100% of herbicidal efficacy or phytotoxicity) | Selective Index [7]: 10

CCCC1(C)CN(Cc2ccccc2NS(=O)(=O)C(F)(F)F)C(=O)O1 (racemic) [1-120]
Bulrush pre (herbicidal efficacy grade) (bulrush [1]; dosage 300 g/ha): 4 (90%-100% of herbicidal efficacy or phytotoxicity) | False pimpernel pre (herbicidal efficacy grade) (false pimpernel [2]; dosage 300 g/ha): 4 (90%-100% of herbicidal efficacy or phytotoxicity) | Burnyard grass post (herbicidal efficacy grade) (barnyard glass; dosage 300 g/ha): 3 (70%-89% of herbicidal efficacy or phytotoxicity) | Bulrush post (herbicidal efficacy grade) (bulrush [3]; dosage 300 g/ha): 4 (90%-100% of herbicidal efficacy or phytotoxicity) | False pimpernel post (herbicidal efficacy grade) (false pimpernel [4]; dosage 300 g/ha): 4 (90%-100% of herbicidal efficacy or phytotoxicity) | Phytotoxicity to paddy rice ([5]; dosage 300 g/ha): 2 (40%-69% of herbicidal efficacy or phytotoxicity) | Herbicide effect to Bulrush (bulrush [6]): 4 (90%-100% of herbicidal efficacy or phytotoxicity) | Selective Index [7]: 10

CC1(C(F)(F)F)CN(Cc2ccccc2NS(=O)(=O)C(F)(F)F)C(=O)O1 (centres unmarked) [1-135]
Bulrush pre (herbicidal efficacy grade) (bulrush [1]; dosage 300 g/ha): 4 (90%-100% of herbicidal efficacy or phytotoxicity) | False pimpernel pre (herbicidal efficacy grade) (false pimpernel [2]; dosage 300 g/ha): 4 (90%-100% of herbicidal efficacy or phytotoxicity) | Burnyard grass post (herbicidal efficacy grade) (barnyard glass; dosage 300 g/ha): 2 (40%-69% of herbicidal efficacy or phytotoxicity) | Bulrush post (herbicidal efficacy grade) (bulrush [3]; dosage 300 g/ha): 4 (90%-100% of herbicidal efficacy or phytotoxicity) | False pimpernel post (herbicidal efficacy grade) (false pimpernel [4]; dosage 300 g/ha): 4 (90%-100% of herbicidal efficacy or phytotoxicity) | Phytotoxicity to paddy rice ([5]; dosage 300 g/ha): 1 (1%-39% of herbicidal efficacy or phytotoxicity) | Herbicide effect to Bulrush (bulrush [6]): 3 (70%-89% of herbicidal efficacy or phytotoxicity) | Selective Index [7]: 3

COC(=O)N(c1ccccc1CN1CC2(CCCCC2)OC1=O)S(=O)(=O)C(F)(F)F [1-149]
Bulrush pre (herbicidal efficacy grade) (bulrush [1]; dosage 1000 g/ha): 4 (90%-100% of herbicidal efficacy or phytotoxicity) | False pimpernel pre (herbicidal efficacy grade) (false pimpernel [2]; dosage 1000 g/ha): 4 (90%-100% of herbicidal efficacy or phytotoxicity) | Burnyard grass post (herbicidal efficacy grade) (barnyard glass; dosage 1000 g/ha): 4 (90%-100% of herbicidal efficacy or phytotoxicity) | Bulrush post (herbicidal efficacy grade) (bulrush [3]; dosage 1000 g/ha): 4 (90%-100% of herbicidal efficacy or phytotoxicity) | False pimpernel post (herbicidal efficacy grade) (false pimpernel [4]; dosage 1000 g/ha): 4 (90%-100% of herbicidal efficacy or phytotoxicity) | Phytotoxicity to paddy rice [5, 8]: 2 (40%-69% of herbicidal efficacy or phytotoxicity) | Herbicide effect to Bulrush (bulrush [6]): 4 (90%-100% of herbicidal efficacy or phytotoxicity) | Selective Index [7]: 10

COC(=O)N(c1ccccc1CN1C(=O)OC2CCCCC21)S(=O)(=O)C(F)(F)F (centres unmarked) [1-152]
Bulrush pre (herbicidal efficacy grade) (bulrush [1]; dosage 1000 g/ha): 4 (90%-100% of herbicidal efficacy or phytotoxicity) | False pimpernel pre (herbicidal efficacy grade) (false pimpernel [2]; dosage 1000 g/ha): 4 (90%-100% of herbicidal efficacy or phytotoxicity) | Burnyard grass post (herbicidal efficacy grade) (barnyard glass; dosage 1000 g/ha): 4 (90%-100% of herbicidal efficacy or phytotoxicity) | Bulrush post (herbicidal efficacy grade) (bulrush [3]; dosage 1000 g/ha): 4 (90%-100% of herbicidal efficacy or phytotoxicity) | False pimpernel post (herbicidal efficacy grade) (false pimpernel [4]; dosage 1000 g/ha): 4 (90%-100% of herbicidal efficacy or phytotoxicity) | Phytotoxicity to paddy rice [5, 8]: 1 (1%-39% of herbicidal efficacy or phytotoxicity) | Herbicide effect to Bulrush (bulrush [6]): 4 (90%-100% of herbicidal efficacy or phytotoxicity) | Selective Index [7]: 10

COC(=O)N(c1ccccc1CN1CC(C)(C(C)(C)C)OC1=O)S(=O)(=O)C(F)(F)F (centres unmarked) [1-153]
Bulrush pre (herbicidal efficacy grade) (bulrush [1]; dosage 1000 g/ha): 4 (90%-100% of herbicidal efficacy or phytotoxicity) | False pimpernel pre (herbicidal efficacy grade) (false pimpernel [2]; dosage 1000 g/ha): 4 (90%-100% of herbicidal efficacy or phytotoxicity) | Burnyard grass post (herbicidal efficacy grade) (barnyard glass; dosage 1000 g/ha): 4 (90%-100% of herbicidal efficacy or phytotoxicity) | Bulrush post (herbicidal efficacy grade) (bulrush [3]; dosage 1000 g/ha): 4 (90%-100% of herbicidal efficacy or phytotoxicity) | False pimpernel post (herbicidal efficacy grade) (false pimpernel [4]; dosage 1000 g/ha): 4 (90%-100% of herbicidal efficacy or phytotoxicity) | Phytotoxicity to paddy rice [5, 8]: 1 (1%-39% of herbicidal efficacy or phytotoxicity) | Herbicide effect to Bulrush (bulrush [6]): 4 (90%-100% of herbicidal efficacy or phytotoxicity) | Selective Index [7]: 10

CC(C)COC(=O)N(c1ccccc1CN1CC(C)(C2CC2)OC1=O)S(=O)(=O)C(F)(F)F (centres unmarked) [1-72]
Bulrush pre (herbicidal efficacy grade) (bulrush [1]; dosage 1000 g/ha): 4 (90%-100% of herbicidal efficacy or phytotoxicity) | False pimpernel pre (herbicidal efficacy grade) (false pimpernel [2]; dosage 1000 g/ha): 4 (90%-100% of herbicidal efficacy or phytotoxicity) | Burnyard grass post (herbicidal efficacy grade) (barnyard glass; dosage 1000 g/ha): 4 (90%-100% of herbicidal efficacy or phytotoxicity) | Bulrush post (herbicidal efficacy grade) (bulrush [3]; dosage 1000 g/ha): 4 (90%-100% of herbicidal efficacy or phytotoxicity) | False pimpernel post (herbicidal efficacy grade) (false pimpernel [4]; dosage 1000 g/ha): 4 (90%-100% of herbicidal efficacy or phytotoxicity) | Phytotoxicity to paddy rice [5, 8]: 1 (1%-39% of herbicidal efficacy or phytotoxicity) | Herbicide effect to Bulrush (bulrush [6]): 4 (90%-100% of herbicidal efficacy or phytotoxicity) | Selective Index [7]: 10
